In patent publication US6737383B1, “Herbicidal oxadiazolidines” (priority 1999, dated 2004):

Legend:
[1] = system: sugar beet; test: Test B pre/postemergence sugar beet; format: in vivo, Beta vulgaris; details: for Sugarbeets plant response rating: scale of 0 to 10 where 0 is no effect and 10 is complete control
In short: (§1)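 Response is a visual 0-to-10 score relative to untreated plants, where 0 means no effect and 10 means complete control, taken twelve to sixteen days after application. Treatments went onto soil at planting and onto foliage of 1- to 4-leaf plants, using a surfactant-containing non-phytotoxic solvent.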

[2] = system: blackgrass; test: Test B pre/postemergence blackgrass; format: in vivo, Alopecurus myosuroides
In short: as §1

[3] = system: surinam grass; test: Test B pre/postemergence surinam grass; format: in vivo, Brachiaria decumbens
In short: as §1

[4] = system: bedstraw; test: Test B pre/postemergence bedstraw; format: in vivo, Galium aparine
In short: as §1

[5] = system: wild oat; test: Test B pre/postemergence wild oat; format: in vivo, Avena fatua; details: for Wild oats plant response rating: scale of 0 to 10 where 0 is no effect and 10 is complete control
In short: as §1

[6] = system: rice; test: Test B flood test rice; format: in vivo, Oryza sativa
In short: (§2)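 Flood test on plants grown to the 2-leaf stage; treated plants kept in greenhouse twelve to sixteen days, then visually rated against controls on a 0 (no effect) to 10 (complete control) scale.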

[7] = system: purple nutsedge; test: Test B pre/postemergence purple nutsedge; format: in vivo, Cyperus rotundus; details: for Nutsedge plant response rating: scale of 0 to 10 where 0 is no effect and 10 is complete control
In short: as §1

[8] = system: soybean; test: Test B pre/postemergence soybean; format: in vivo, Glycine max; details: for Soybean plant response rating: scale of 0 to 10 where 0 is no effect and 10 is complete control
In short: as §1

[9] = system: smallflower flatsedge; test: Test B flood test smallflower flatsedge; format: in vivo, Cyperus difformis
In short: as §2

[10] = system: cocklebur; test: Test B pre/postemergence cocklebur; format: in vivo, Xanthium strumarium; details: for Cocklebur plant response rating: scale of 0 to 10 where 0 is no effect and 10 is complete control
In short: as §1

[11] = system: corn; test: Test B pre/postemergence corn; format: in vivo, Zea mays; details: for Corn plant response rating: scale of 0 to 10 where 0 is no effect and 10 is complete control
In short: as §1

[12] = system: duck salad; test: Test B flood test duck salad; format: in vivo, Heteranthera limosa
In short: as §2

[13] = system: rape; test: Test B pre/postemergence rape; format: in vivo, Brassica napus; details: for Rape plant response rating: scale of 0 to 10 where 0 is no effect and 10 is complete control
In short: as §1

[14] = system: wheat; test: Test B pre/postemergence wheat; format: in vivo, Triticum aestivum; details: for Wheat plant response rating: scale of 0 to 10 where 0 is no effect and 10 is complete control
In short: as §1

[15] = system: bamyardgrass; test: Test B flood test barnyardgrass; format: in vivo, Echinochloa crus-galli
In short: as §2

[16] = system: crabgrass; test: Test B pre/postemergence crabgrass; format: in vivo, Digitaria sanguinalis; details: for Crabgrass plant response rating: scale of 0 to 10 where 0 is no effect and 10 is complete control
In short: as §1

[17] = system: velvetleaf; test: Test B pre/postemergence velvetleaf; format: in vivo, Abutilon theophrasti; details: for Velvetleaf plant response rating: scale of 0 to 10 where 0 is no effect and 10 is complete control
In short: as §1

[18] = Postemergence, Rate 125 g/ha, scale 0 to 10, 0 is no effect, 10 is complete control
[19] = Preemergence, Rate 62 g/ha, scale 0 to 10 (0 no effect, 10 complete control)
[20] = Rate 500 g/ha, Postemergence, scale 0 to 10, 0 no effect, 10 complete control
[21] = Preemergence, Rate 250 g/ha, scale of 0 to 10 where 0 is no effect and 10 is complete control
[22] = Preemergence, Rate 500 g/ha, scale of 0 to 10 where 0 is no effect and 10 is complete control
[23] = Rate 62 g/ha, Postemergence, scale of 0 to 10 where 0 is no effect and 10 is complete control
[24] = Rate 250 g/ha, Postemergence, scale of 0 to 10 where 0 is no effect and 10 is complete control
[25] = Postemergence (flood test), Rate 125 g/ha, scale 0 to 10, 0 is no effect, 10 is complete control
[26] = Rate 62 g/ha, Postemergence (flood test species), scale of 0 to 10 where 0 is no effect and 10 is complete control
[27] = Rate 500 g/ha, listed under Postemergence (flood test species), scale 0 to 10, 0 no effect, 10 complete control

COCC(C)n1c(=O)on(C(=O)N(c2ccc(F)cc2F)C(C)C)c1=O (stereo not drawn) [Compound 352]
6: B. signalgrass plant response rating (0 to 10 scale, 0 is no effect, 10 is complete control) ([3]; Preemergence, Rate 125 g/ha) | Corn plant response rating ([11]; Preemergence, Rate 250 g/ha) | Plant response rating, Corn [11, 20] | Wheat plant response rating ([14]; Preemergence, Rate 500 g/ha) | Velvetleaf plant response rating ([17]; Preemergence, Rate 250 g/ha)
9: Plant response rating, Blackgrass [2, 19] | Wild oats plant response rating ([5]; Preemergence, Rate 250 g/ha) | Corn plant response rating ([11]; Preemergence, Rate 500 g/ha) | Plant response rating, Crabgrass [16, 19]
1: Crabgrass plant response rating ([16]; Rate 62 g/ha, Postemergence)
4: Plant response rating, Bedstraw [4, 20] | Plant response rating, Soybean [8, 20] | Plant response rating, Crabgrass [16, 20] | Velvetleaf plant response rating (0 to 10 scale) ([17]; Preemergence, Rate 125 g/ha)
2: Plant response rating, Sugarbeets [1, 19] | Plant response rating, B. signalgrass [3, 18] | Plant response rating, B. signalgrass [3, 19] | Plant response rating, Bedstraw [4, 24] | Plant response rating, Nutsedge [7, 20] | Plant response rating, Soybean [8, 18] | Soybean plant response rating ([8]; Preemergence, Rate 500 g/ha) | Soybean plant response rating ([8]; Rate 62 g/ha, Postemergence) | S. Flatsedge plant response rating [9, 26] | Plant response rating, Ducksalad [12, 27] | Wheat plant response rating ([14]; Preemergence, Rate 250 g/ha) | Plant response rating, Velvetleaf [17, 19]
0: Plant response rating, Sugarbeets [1, 18] | Sugarbeets plant response rating ([1]; Rate 62 g/ha, Postemergence) | Plant response rating, Sugarbeets [1, 20] | B. signalgrass plant response rating [3, 23] | Plant response rating, Bedstraw [4, 18] | Plant response rating, Bedstraw [4, 19] | Bedstraw plant response rating (0 to 10 scale) ([4]; Preemergence, Rate 125 g/ha) | Bedstraw plant response rating [4, 23] | Plant response rating, Wild oats [5, 18] | Wild oats plant response rating ([5]; Rate 62 g/ha, Postemergence) | Rice plant response rating [6, 26] | Plant response rating, Nutsedge [7, 18] | Plant response rating, Nutsedge [7, 19] | Nutsedge plant response rating (0 to 10 scale) ([7]; Preemergence, Rate 125 g/ha) | Nutsedge plant response rating ([7]; Preemergence, Rate 250 g/ha) | Nutsedge plant response rating ([7]; Preemergence, Rate 500 g/ha) | Nutsedge plant response rating ([7]; Rate 62 g/ha, Postemergence) | Plant response rating, Soybean [8, 19] | Soybean plant response rating (0 to 10 scale) ([8]; Preemergence, Rate 125 g/ha) | Soybean plant response rating ([8]; Preemergence, Rate 250 g/ha) | Plant response rating, Cocklebur [10, 18] | Plant response rating, Cocklebur [10, 19] | Cocklebur plant response rating (0 to 10 scale) ([10]; Preemergence, Rate 125 g/ha) | Cocklebur plant response rating ([10]; Preemergence, Rate 250 g/ha) | Cocklebur plant response rating ([10]; Preemergence, Rate 500 g/ha) | Cocklebur plant response rating ([10]; Rate 62 g/ha, Postemergence) | Plant response rating, Cocklebur [10, 20] | Plant response rating, Corn [11, 18] | Plant response rating, Corn [11, 19] | Corn plant response rating ([11]; Rate 62 g/ha, Postemergence) | Plant response rating, Ducksalad [12, 25] | Ducksalad plant response rating [12, 26] | Plant response rating, Rape [13, 18] | Plant response rating, Rape [13, 19] | Rape plant response rating (0 to 10 scale) ([13]; Preemergence, Rate 125 g/ha) | Rape plant response rating ([13]; Preemergence, Rate 250 g/ha) | Rape plant response rating ([13]; Rate 62 g/ha, Postemergence) | Plant response rating, Rape [13, 20] | Plant response rating, Wheat [14, 19] | Wheat plant response rating (0 to 10 scale) ([14]; Preemergence, Rate 125 g/ha) | Wheat plant response rating ([14]; Rate 62 g/ha, Postemergence) | Barnyardgrass plant response rating [15, 26] | Plant response rating, Velvetleaf [17, 18] | Velvetleaf plant response rating ([17]; Rate 62 g/ha, Postemergence)
7: Sugarbeets plant response rating ([1]; Preemergence, Rate 500 g/ha) | B. signalgrass plant response rating [3, 21] | B. signalgrass plant response rating [3, 22] | Plant response rating, B. signalgrass [3, 24] | Plant response rating, B. signalgrass [3, 20] | Plant response rating, Wild oats [5, 20] | Plant response rating, S. Flatsedge [9, 25] | Plant response rating, S. Flatsedge [9, 27] | Rape plant response rating ([13]; Preemergence, Rate 500 g/ha) | Plant response rating, Wheat [14, 20] | Velvetleaf plant response rating ([17]; Preemergence, Rate 500 g/ha)
3: Sugarbeets plant response rating (0 to 10 scale) ([1]; Preemergence, Rate 125 g/ha) | Sugarbeets plant response rating ([1]; Preemergence, Rate 250 g/ha) | Plant response rating, Rice [6, 25] | Plant response rating, Rice [6, 27] | Plant response rating, Wheat [14, 18] | Plant response rating, Barnyardgrass [15, 25] | Plant response rating, Barnyardgrass ([15]; Rate 250 g/ha, Postemergence (flood test species), scale of 0 to 10 where 0 is no effect and 10 is complete control) | Plant response rating, Barnyardgrass [15, 27] | Plant response rating, Crabgrass [16, 18] | Plant response rating, Velvetleaf [17, 20]
5: Corn plant response rating (0 to 10 scale) ([11]; Preemergence, Rate 125 g/ha)
10: Blackgrass plant response rating (0 to 10 scale) ([2]; Preemergence, Rate 125 g/ha) | Blackgrass plant response rating [2, 21] | Blackgrass plant response rating [2, 22] | Wild oats plant response rating ([5]; Preemergence, Rate 500 g/ha) | Crabgrass plant response rating (0 to 10 scale) ([16]; Preemergence, Rate 125 g/ha) | Crabgrass plant response rating ([16]; Preemergence, Rate 250 g/ha) | Crabgrass plant response rating ([16]; Preemergence, Rate 500 g/ha)
8: Plant response rating, Blackgrass [2, 18] | Blackgrass plant response rating [2, 23] | Plant response rating, Blackgrass [2, 24] | Plant response rating, Blackgrass [2, 20] | Plant response rating, Wild oats [5, 19] | Wild oats plant response rating (0 to 10 scale) ([5]; Preemergence, Rate 125 g/ha)
